Experimental data published in ChEMBL document CHEMBL1671858, “Coprevalence of plasmid-mediated quinolone resistance determinants QepA, Qnr, and AAC(6')-Ib-cr among 16S rRNA methylase RmtB-producing Escherichia coli isolates from pigs” (2008).

What was measured:
Format in all cases: functional
[1] = tested on: Escherichia coli; assay: Antimicrobial activity against Escherichia coli isolate GZ3 PFGE type A1 harboring qepA gene by agar dilution method
[2] = tested on: Escherichia coli; assay: Antimicrobial activity against Escherichia coli isolate GZ4 PFGE type A2 harboring qepA gene by agar dilution method
[3] = tested on: Escherichia coli; assay: Antimicrobial activity against Escherichia coli isolate GZ5 PFGE type B harboring qepA gene by agar dilution method
[4] = tested on: Escherichia coli; assay: Antimicrobial activity against Escherichia coli isolate GZ8 PFGE type C harboring qepA gene by agar dilution method
[5] = tested on: Escherichia coli; assay: Antimicrobial activity against Escherichia coli isolate GZ9 PFGE type D harboring qepA gene by agar dilution method
[6] = tested on: Escherichia coli; assay: Antimicrobial activity against Escherichia coli isolate GZ11 PFGE type E harboring qepA gene by agar dilution method
[7] = tested on: Escherichia coli; assay: Antimicrobial activity against Escherichia coli isolate GZ13 PFGE type F harboring qepA gene by agar dilution method
[8] = tested on: Escherichia coli; assay: Antimicrobial activity against Escherichia coli isolate GZ15 PFGE type G harboring qepA gene by agar dilution method
[9] = tested on: Escherichia coli; assay: Antimicrobial activity against Escherichia coli isolate CQ15 PFGE type I1 harboring qepA gene by agar dilution method
[10] = tested on: Escherichia coli; assay: Antimicrobial activity against Escherichia coli isolate CQ18 PFGE type I2 harboring qepA gene by agar dilution method
[11] = tested on: Escherichia coli; assay: Antimicrobial activity against Escherichia coli isolate CQ5 PFGE type I2 harboring qepA gene by agar dilution method
[12] = tested on: Escherichia coli; assay: Antimicrobial activity against Escherichia coli isolate CQ26 PFGE type K harboring qepA gene by agar dilution method
[13] = tested on: Escherichia coli; assay: Antimicrobial activity against Escherichia coli isolate CQ10 PFGE type L harboring qepA gene by agar dilution method
[14] = tested on: Escherichia coli; assay: Antimicrobial activity against Escherichia coli isolate GZ7 PFGE type N harboring qepA gene by agar dilution method
[15] = tested on: Escherichia coli; assay: Antimicrobial activity against Escherichia coli isolate GZ1 PFGE type O harboring qepA gene by agar dilution method
[16] = tested on: Escherichia coli; assay: Antimicrobial activity against Escherichia coli isolate GZ2 PFGE type O harboring qepA gene by agar dilution method
[17] = tested on: Escherichia coli; assay: Antimicrobial activity against Escherichia coli isolate CQ22 PFGE type P harboring qepA gene by agar dilution method
[18] = tested on: Escherichia coli; assay: Antimicrobial activity against Escherichia coli isolate CQ13 PFGE type K harboring qepA gene by agar dilution method
[19] = tested on: Escherichia coli; assay: Antimicrobial activity against Escherichia coli isolate CQ6 PFGE type Q harboring qepA gene by agar dilution method
[20] = tested on: Escherichia coli; assay: Antimicrobial activity against Escherichia coli isolate CQ7 PFGE type Q harboring qepA gene by agar dilution method
[21] = tested on: Escherichia coli; assay: Antimicrobial activity against Escherichia coli isolate CQ12 PFGE type Q harboring qepA gene by agar dilution method
[22] = tested on: Escherichia coli; assay: Antimicrobial activity against Escherichia coli isolate CQ16 PFGE type Q harboring qepA gene by agar dilution method
[23] = tested on: Escherichia coli; assay: Antimicrobial activity against Escherichia coli isolate CQ1 PFGE type U harboring qepA gene by agar dilution method
[24] = tested on: Escherichia coli; assay: Antimicrobial activity against Escherichia coli isolate GZ3 transconjugant harboring 16S rRNA methylase RmtB and qepA by agar dilution method relative to recipient strain
[25] = tested on: Escherichia coli; assay: Antimicrobial activity against Escherichia coli isolate GZ5 transconjugant harboring 16S rRNA methylase RmtB and qepA by agar dilution method relative to recipient strain
[26] = tested on: Escherichia coli; assay: Antimicrobial activity against Escherichia coli isolate GZ8 transconjugant harboring 16S rRNA methylase RmtB and qepA by agar dilution method relative to recipient strain
[27] = tested on: Escherichia coli; assay: Antimicrobial activity against Escherichia coli isolate GZ9 transconjugant harboring 16S rRNA methylase RmtB and qepA by agar dilution method relative to recipient strain
[28] = tested on: Escherichia coli; assay: Antimicrobial activity against Escherichia coli isolate GZ11 transconjugant harboring 16S rRNA methylase RmtB and qepA by agar dilution method relative to recipient strain
[29] = tested on: Escherichia coli; assay: Antimicrobial activity against Escherichia coli isolate GZ13 transconjugant harboring 16S rRNA methylase RmtB and qepA by agar dilution method relative to recipient strain
[30] = tested on: Escherichia coli; assay: Antimicrobial activity against Escherichia coli isolate GZ14 transconjugant harboring 16S rRNA methylase RmtB and qepA by agar dilution method relative to recipient strain
[31] = tested on: Escherichia coli; assay: Antimicrobial activity against Escherichia coli isolate GZ15 transconjugant harboring 16S rRNA methylase RmtB and qepA by agar dilution method relative to recipient strain
[32] = tested on: Escherichia coli; assay: Antimicrobial activity against Escherichia coli isolate CQ15 transconjugant harboring 16S rRNA methylase RmtB and qepA by agar dilution method relative to recipient strain
[33] = tested on: Escherichia coli; assay: Antimicrobial activity against Escherichia coli isolate CQ2 transconjugant harboring 16S rRNA methylase RmtB and qepA by agar dilution method relative to recipient strain
[34] = tested on: Escherichia coli; assay: Antimicrobial activity against Escherichia coli isolate CQ5 transconjugant harboring 16S rRNA methylase RmtB and qepA by agar dilution method relative to recipient strain
[35] = tested on: Escherichia coli; assay: Antimicrobial activity against Escherichia coli isolate CQ4 transconjugant harboring 16S rRNA methylase RmtB and qepA by agar dilution method relative to recipient strain
[36] = tested on: Escherichia coli; assay: Antimicrobial activity against Escherichia coli isolate CQ20 transconjugant harboring 16S rRNA methylase RmtB and qepA by agar dilution method relative to recipient strain
[37] = tested on: Escherichia coli; assay: Antimicrobial activity against Escherichia coli isolate CQ26 transconjugant harboring 16S rRNA methylase RmtB and qepA by agar dilution method relative to recipient strain
[38] = tested on: Escherichia coli; assay: Antimicrobial activity against Escherichia coli isolate CQ14 transconjugant harboring 16S rRNA methylase RmtB and qepA by agar dilution method relative to recipient strain
[39] = tested on: Escherichia coli; assay: Antimicrobial activity against Escherichia coli isolate GZ7 transconjugant harboring 16S rRNA methylase RmtB and qepA and qnrS1 by agar dilution method relative to recipient strain
[40] = tested on: Escherichia coli; assay: Antimicrobial activity against Escherichia coli isolate GZ1 transconjugant harboring 16S rRNA methylase RmtB and qnrS1 by agar dilution method relative to recipient strain
[41] = tested on: Escherichia coli; assay: Antimicrobial activity against Escherichia coli isolate GZ2 transconjugant harboring 16S rRNA methylase RmtB and qnrS1 by agar dilution method relative to recipient strain
[42] = tested on: Escherichia coli; assay: Antimicrobial activity against Escherichia coli isolate CQ22 transconjugant harboring 16S rRNA methylase RmtB and qnrS1 by agar dilution method relative to recipient strain
[43] = tested on: Escherichia coli; assay: Antimicrobial activity against Escherichia coli isolate CQ13 transconjugant harboring 16S rRNA methylase RmtB and qnrS1 by agar dilution method relative to recipient strain
[44] = tested on: Escherichia coli; assay: Antimicrobial activity against Escherichia coli isolate CQ7 transconjugant harboring 16S rRNA methylase RmtB and qepA, qnrS2, aac(6')-Ib-cr gene by agar dilution method relative to recipient strain
[45] = tested on: Escherichia coli; assay: Antimicrobial activity against Escherichia coli isolate CQ12 transconjugant harboring 16S rRNA methylase RmtB and qepA, qnrS2, aac(6')-Ib-cr gene by agar dilution method relative to recipient strain
[46] = tested on: Escherichia coli; assay: Antimicrobial activity against Escherichia coli isolate GZ10 transconjugant harboring 16S rRNA methylase RmtB and qepA, aac(6')-Ib-cr gene by agar dilution method relative to recipient strain
[47] = tested on: Escherichia coli; assay: Antimicrobial activity against Escherichia coli isolate CQ19 transconjugant harboring 16S rRNA methylase RmtB and qepA, aac(6')-Ib-cr gene by agar dilution method relative to recipient strain

CCN1CCN(c2cc3c(cc2F)c(=O)c(C(=O)O)cn3C2CC2)CC1 [ENROFLOXACIN]
32 µg/mL: MIC [2] | MIC [5] | MIC [14]
8: fold change (FC) [25] | fold change (FC) [30] | fold change (FC) [31] | fold change (FC) [43]
32: fold change (FC) [40]
0.25 µg/mL: MIC [13] | MIC [23]
8 µg/mL: MIC [7] | MIC [8]
16: fold change (FC) [26] | fold change (FC) [32] | fold change (FC) [33]
0.5 µg/mL: MIC [12] | MIC [18]
1: fold change (FC) [35] | fold change (FC) [39]
2: fold change (FC) [27] | fold change (FC) [29] | fold change (FC) [34] | fold change (FC) [37] | fold change (FC) [38] | fold change (FC) [41] | fold change (FC) [42] | fold change (FC) [44]
64 µg/mL: MIC [1] | MIC [4]
4: fold change (FC) [24] | fold change (FC) [28] | fold change (FC) [36] | fold change (FC) [45] | fold change (FC) [46] | fold change (FC) [47]
16 µg/mL: MIC [3]
2 µg/mL: MIC [9] | MIC [10] | MIC [16] | MIC [19] | MIC [20] | MIC [21] | MIC [22]
4 µg/mL: MIC [11] | MIC [15] | MIC [17]
128 µg/mL: MIC [6]
